We go through 3 molecules from paper PMC7374060, “An Antivirulence Approach for Preventing Cryptococcus neoformans from Crossing the Blood-Brain Barrier via Novel Natural Product Inhibitors of a Fungal Metalloprotease” (mBio, 2020).

SMILES strings stand for the structures.

T1 sequence (J9VXZ9 entry or part of it): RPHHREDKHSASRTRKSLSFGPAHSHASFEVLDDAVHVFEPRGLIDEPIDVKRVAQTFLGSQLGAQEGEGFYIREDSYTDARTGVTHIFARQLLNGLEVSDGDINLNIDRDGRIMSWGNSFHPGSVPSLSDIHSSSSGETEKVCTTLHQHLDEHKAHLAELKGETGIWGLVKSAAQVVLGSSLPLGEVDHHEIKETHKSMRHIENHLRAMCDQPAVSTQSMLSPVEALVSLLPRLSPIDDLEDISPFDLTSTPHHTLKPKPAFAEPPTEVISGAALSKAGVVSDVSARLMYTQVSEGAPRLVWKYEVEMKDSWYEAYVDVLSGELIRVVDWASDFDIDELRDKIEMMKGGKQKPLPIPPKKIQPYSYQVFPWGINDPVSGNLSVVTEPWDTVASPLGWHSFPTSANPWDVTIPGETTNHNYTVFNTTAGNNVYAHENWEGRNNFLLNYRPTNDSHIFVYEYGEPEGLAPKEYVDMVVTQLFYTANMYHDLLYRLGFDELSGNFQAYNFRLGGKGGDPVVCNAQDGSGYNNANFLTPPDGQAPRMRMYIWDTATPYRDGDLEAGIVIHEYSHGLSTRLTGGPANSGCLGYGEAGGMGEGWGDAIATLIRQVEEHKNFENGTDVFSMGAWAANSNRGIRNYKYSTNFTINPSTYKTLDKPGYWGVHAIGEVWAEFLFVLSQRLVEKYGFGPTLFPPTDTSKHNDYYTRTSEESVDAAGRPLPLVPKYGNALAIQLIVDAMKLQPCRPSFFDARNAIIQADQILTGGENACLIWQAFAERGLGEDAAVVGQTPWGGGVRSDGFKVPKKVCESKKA

This assay concerns the target T1, Mpr1 (Cryptococcus neoformans, UniProt J9VXZ9).
T1 construct: gene CNAG_04735; recombinant His-tagged Mpr1 secreted from Pichia pastoris expressing CnMPR1-HIS cDNA
In words: FITC-casein proteolysis assay with purified recombinant Mpr1-His. It counts as biochemical.
`OC[C@@H]1CCCN2CCCC[C@H]12` [NP003-2B11, lupinine]: the IC50 worked out at 9.66 µM. As for `C[C@@H]1CC[C@@]2(OC1)O[C@H]1C[C@H]3[C@@H]4CC=C5C[C@@H](O)CC[C@]5(C)[C@H]4CC[C@]3(C)[C@H]1[C@@H]2C` [NP002-1D9, diosgenin], the IC50 came to 5.03 µM.

As to `CC(C)C1=CC2=CC[C@@H]3[C@](C)(CCC[C@@]3(C)C(=O)O)[C@H]2CC1` [NP001-1C11, abietic acid], the IC50 was determined as 5.14 µM.
